According to patent publication US20230295166A1, “ATR INHIBITORS AND USES THEREOF” (ANTENGENE DISCOVERY LIMITED, priority 2020, published 2023):

tested on: LoVo (CCL-229) cells; assay: Tumor cell anti-proliferation assay (CTG assay); type: cell-based; details: LoVo human colorectal cancer cells, 96 h, CellTiter-Glo
Procedure: Assay 2: Tumor Cell Anti-proliferation Assay (CTG Assay)
Human colorectal cancer cells HT-29 (HTB-38) and LoVo (CCL-229) were selected for the CTG assay, the two cell lines were originally obtained from the American Type Culture Collection (ATCC). FBS and appropriate additives were added into base medium to prepare complete medium, then the cell layer was briefly rinsed with 0.25% (w/v) Trypsin-0.038% (w/v) EDTA solution to remove all traces of serum that contains trypsin inhibitor. After that, appropriate volume of Trypsin-EDTA solution was added to flask and cells under an inverted microscope were observed until cell layer was dispersed. At last, appropriate volume of complete growth medium was added and cells were aspirated by gently pipetting. Numbers were collected and counted with Vi-cell XR and cell density was adjusted, cells were seeded into 96-well opaque-walled clear bottom tissue-culture treated plates in the CO2 incubator for 20-24 hours. All the test compounds were at 10 mM in DMSO. Compounds were then added to the cell media in 3-fold serial dilutions, the final DMSO concentration was 0.5%. Plates were incubated for 96 h at 5% CO2, 37° C. Before the measurement, the appropriate volume of CellTiter-Glo Buffer was transferred into the amber bottle containing CellTiter-Glo substrate to reconstitute the lyophilized enzyme/substrate mixture, mixed gently, thereby forming the CellTiter-Glo Reagent (Promega Cat. No. G7573). The plate and its contents were equilibrated to room temperature for approximately 30 minutes, then 100 μL of CellTiter-Glo Reagent was added to the assay plate, the contents were mixed for 2 minutes on an orbital shaker to induce cell lysis, incubated at room temperature for 10 minutes to stabilize luminescent signal. At last the clear bottom was pasted with white back seal and luminescence was recorded with Enspire. IC50 and GI50 values were calculated with XLFit curve fitting software using 4 Parameter Logistic Model Y=Bottom+(Top−Bottom)/(1+(IC50/X)^HillSlope).

SMILES	IC50
Cc1cc(-c2cnc3c(-c4ccnn4C)cc(N4CCOC[C@H]4C)nn23)[nH]n1 [Example 23, (R)-3-methyl-4-(8-(1-methyl-1H-pyrazol-5-yl)-3-(3-methyl-1H-pyrazol-5-yl)imidazo[1,2-b]pyridazin-6-yl)morpholine]	446 nM
C[C@@H]1COCCN1c1cc(C(C)(C)C#N)c2cnc(-c3ccn[nH]3)n2n1 [Example 40, (R)-2-methyl-2-(2-(3-methylmorpholino)-7-(1H-pyrazol-5-yl)imidazo[1,5-b]pyridazin-4-yl)propanenitrile]	23.8 nM
C[C@@H]1COCCN1c1cc(C2(C#N)CCCC2)c2cnc(-c3ccn[nH]3)n2n1 [Example 59, 1-{2-[(3R)-3-methylmorpholin-4-yl]-7-(1H-pyrazol-5-yl)imidazo[1,5-b]pyridazin-4-yl}cyclopentane-1-carbonitrile]	28.1 nM
Cc1cc(-c2ncc3c(-c4ccnn4C)cc(N4CC5CCC(C4)O5)nn23)[nH]n1 [Example 79, 3-[4-(1-methyl-1H-pyrazol-5-yl)-7-(3-methyl-1H-pyrazol-5-yl)imidazo[1,5-b]pyridazin-2-yl]-8-oxa-3-azabicyclo[3.2.1]octane]	246 nM
Cc1cc(-c2nsc3c(C4(O)CCCCC4)cc(N4CCOC[C@H]4C)nc23)[nH]n1 [Example 86, (R)-1-(3-(3-methyl-1H-pyrazol-5-yl)-5-(3-methylmorpholino)isothiazolo[4,5-b]pyridin-7-yl)cyclohexan-1-ol]	9 nM
Cc1cc(-c2nsc3c(C(C)(C)CO)cc(N4CCOC[C@H]4C)nc23)[nH]n1 [Example 97, (R)-2-methyl-2-(3-(3-methyl-1H-pyrazol-5-yl)-5-(3-methylmorpholino)isothiazolo[4,5-b]pyridin-7-yl)propan-1-ol]	10 nM
C[C@@H]1COCCN1c1cc(C2(O)CCCCC2)c2snc(-c3ccn[nH]3)c2n1 [Example 91, (R)-1-(5-(3-methylmorpholino)-3-(1H-pyrazol-5-yl)isothiazolo[4,5-b]pyridin-7-yl)cyclohexan-1-ol]	2 nM
C[C@@H]1COCCN1c1cc(C2(C#N)CC2)c2cnc(-c3ccn[nH]3)n2n1 [Example 44, (R)-1-(2-(3-methylmorpholino)-7-(1H-pyrazol-5-yl)imidazo[1,5-b]pyridazin-4-yl)cyclopropane-1-carbonitrile]	43.9 nM
Cc1cc(-c2nsc3c(-c4ncnn4C)cc(N4CCOC[C@H]4C)nc23)[nH]n1 [Example 102, (R)-3-methyl-4-(7-(1-methyl-1H-1,2,4-triazol-5-yl)-3-(3-methyl-1H-pyrazol-5-yl)isothiazolo[4,5-b]pyridin-5-yl)morpholine]	26 nM
Cc1cc(-c2nsc3c(-c4c(C)cnn4C)cc(N4CCOC[C@H]4C)nc23)[nH]n1 [Example 71, (R)-4-(7-(1,4-dimethyl-1H-pyrazol-5-yl)-3-(3-methyl-1H-pyrazol-5-yl)isothiazolo[4,5-b]pyridin-5-yl)-3-methylmorpholine]	23 nM
Cc1cc(-c2nc(C)c3c(-c4c(C)nnn4C)cc(N4CCOC[C@H]4C)nn23)[nH]n1 [Example 46, (3R)-4-[4-(dimethyl-1H-1,2,3-triazol-5-yl)-5-methyl-7-(3-methyl-1H-pyrazol-5-yl)imidazo[1,5-b]pyridazin-2-yl]-3-methylmorpholine]	51.2 nM
Cc1cc(-c2nsc3c(-c4c(C)noc4C)cc(N4CCOC[C@H]4C)nc23)[nH]n1 [Example 73, (R)-4-(7-(3,5-dimethylisoxazol-4-yl)-3-(3-methyl-1H-pyrazol-5-yl)isothiazolo[4,5-b]pyridin-5-yl)-3-methylmorpholine]	41 nM
Cc1cc(-c2nsc3c(P(C)(C)=O)cc(N4CCOC[C@H]4C)nc23)n(C2CCCCO2)n1 (stereo partly drawn) [Example 108, dimethyl(3-(3-methyl-1-(tetrahydro-2H-pyran-2-yl)-1H-pyrazol-5-yl)-5-((R)-3-methylmorpholino)isothiazolo[4,5-b]pyridin-7-yl)phosphine oxide]	35 nM
Cc1cc(-c2nsc3c(Cl)cc(N4CCOC[C@H]4C)nc23)[nH]n1 [Example 104, (R)-4-(7-chloro-3-(3-methyl-1H-pyrazol-5-yl)isothiazolo[4,5-b]pyridin-5-yl)-3-methylmorpholine]	154 nM
Cc1nc(-c2ccn[nH]2)n2nc(N3CC4CCC(C3)O4)cc(-c3ccnn3C)c12 [Example 65, 3-[5-methyl-4-(1-methyl-1H-pyrazol-5-yl)-7-(1H-pyrazol-5-yl)imidazo [1,5-b]pyridazin-2-yl]-8-oxa-3-azabicyclo[3.2.1]octane]	55.2 nM
Cc1cc(-c2nsc3c(C4(S(C)(=N)=O)CC4)cc(N4CCOC[C@H]4C)nc23)[nH]n1 (stereo partly drawn) [Example 94, imino(methyl)(1-(3-(3-methyl-1H-pyrazol-5-yl)-5-((R)-3-methylmorpholino)isothiazolo[4,5-b]pyridin-7-yl)cyclopropyl)-16-sulfanone]	12 nM
Cc1cnn(C)c1-c1cc(N2CCOC[C@H]2C)nc2c(-c3ccn[nH]3)nsc12 [Example 70, (R)-4-(7-(1,4-dimethyl-1H-pyrazol-5-yl)-3-(1H-pyrazol-5-yl)isothiazolo[4,5-b]pyridin-5-yl)-3-methylmorpholine]	18 nM

More lines, in order of falling IC50, values ahead:

IC50	SMILES
471 nM	C[C@@H]1COCCN1c1cc(-c2ccnn2C)n2ccc(-c3ccn[nH]3)c2n1 [Example 28, (R)-3-methyl-4-(4-(1-methyl-1H-pyrazol-5-yl)-8-(1H-pyrazol-5-yl)pyrrolo[1,2-a]pyrimidin-2-yl)morpholine]
129 nM	Cc1cc(-c2ncc3c(-c4c(C)nnn4C)cc(N4CCOC[C@H]4C)nn23)[nH]n1 [Example 35, (3R)-4-(4-(1,4-dimethyl-1H-1,2,3-triazol-5-yl)-7-(3-methyl-1H-pyrazol-5-yl)imidazo[1,5-b]pyridazin-2-yl)-3-methylmorpholine]
94 nM	COC(=O)C1(c2cc(N3CCOC[C@H]3C)nc3c(-c4ccn[nH]4)nsc23)CCCC1 [Example 92]
86.6 nM	C[C@@H]1COCCN1c1cc(C(C)(C)S(C)(=O)=O)c2cnc(-c3ccn[nH]3)n2n1 [Example 41, (3R)-4-[4-(2-methanesulfonylpropan-2-yl)-7-(1H-pyrazol-5-yl)imidazo[1,5-b]pyridazin-2-yl]-3-methylmorpholine]
69 nM	Cc1cc(-c2nc(C)c3c(-c4ccnn4C)cc(N4CC5CCC(C4)O5)nn23)[nH]n1 [Example 66, 3-[5-methyl-4-(1-methyl-1H-pyrazol-5-yl)-7-(3-methyl-1H-pyrazol-5-yl)imidazo[1,5-b]pyridazin-2-yl]-8-oxa-3-azabicyclo[3.2.1]octane]
46 nM	Cc1cc(-c2nsc3c(C4(O)CCCC4)cc(N4CCOC[C@H]4C)nc23)[nH]n1 [Example 106, (R)-1-(3-(3-methyl-1H-pyrazol-5-yl)-5-(3-methylmorpholino)isothiazolo[4,5-b]pyridin-7-yl)cyclopentan-1-ol]
40.4 nM	Cc1nnn(C)c1-c1cc(N2CCOC[C@H]2C)nc2c(-c3ccn[nH]3)nsc12 [Example 38, (R)-4-(7-(1,4-dimethyl-1H-1,2,3-triazol-5-yl)-3-(1H-pyrazol-5-yl)isothiazolo[4,5-b]pyridin-5-yl)-3-methylmorpholine]
36.6 nM	Cc1cc(-c2nsc3c(-c4ccnn4C)cc(N4CCOC[C@H]4C)nc23)[nH]n1 [Example 37, (R)-3-methyl-4-(7-(1-methyl-1H-pyrazol-5-yl)-3-(3-methyl-1H-pyrazol-5-yl)isothiazolo[4,5-b]pyridin-5-yl)morpholine]
36 nM	Cc1cc(-c2nsc3c(-c4ccccc4S(C)(=O)=O)cc(N4CCOC[C@H]4C)nc23)[nH]n1 [Example 95, (3R)-4-[7-(2-methanesulfonylphenyl)-3-(3-methyl-1H-pyrazol-5-yl)-[1,2]thiazolo[4,5-b]pyridin-5-yl]-3-methylmorpholine]
17.8 nM	Cc1nc(-c2ccn[nH]2)n2nc(N3CCOC[C@H]3C)cc(-c3ccnn3C)c12 [Example 36, (R)-3-methyl-4-(5-methyl-4-(1-methyl-1H-pyrazol-5-yl)-7-(1H-pyrazol-5-yl)imidazo[1,5-b]pyridazin-2-yl)morpholine]
17.1 nM	Cc1cc(-c2nc(C)c3c(-c4ccnn4C)cc(N4CCOC[C@H]4C)nn23)[nH]n1 [Example 47, (R)-3-methyl-4-(5-methyl-4-(1-methyl-1H-pyrazol-5-yl)-7-(3-methyl-1H-pyrazol-5-yl)imidazo[1,5-b]pyridazin-2-yl)morpholine]
16 nM	Cc1cc(-c2nsc3c(-c4cnnn4C)cc(N4CCOC[C@H]4C)nc23)[nH]n1 [Example 68, (R)-3-methyl-4-(7-(1-methyl-1H-1,2,3-triazol-5-yl)-3-(3-methyl-1H-pyrazol-5-yl)isothiazolo[4,5-b]pyridin-5-yl)morpholine]
16 nM	C[C@@H]1COCCN1c1cc(C(C)(C)CO)c2snc(-c3ccn[nH]3)c2n1 [Example 100, (R)-2-methyl-2-(5-(3-methylmorpholino)-3-(1H-pyrazol-5-yl)isothiazolo[4,5-b]pyridin-7-yl)propan-1-ol]
